US4510136A (priority 1983, dated 1985)
Counter-ions that a name gives are not always drawn.

Columns and labels:
Format in all cases: in vivo
[1] = system: Erysiphe cichoracearum; test: Cucumber powdery mildew control on sprayed cucumber seedlings (Example 80); details: 100 ppm spray, day before inoculation; for pest or weed control at 100 ppm: Golovinomyces cichoracearum, 168 h
Procedure: These suspensions were sprayed to the point of run-off, on cucumber seedlings. The following day, the plants were inoculated with a spore suspension of the fungus Erysiphe cichoracearum, causal agent of cucumber powdery mildew, and incubated in a growth room for 7 days. Disease ratings were then made. Treated plants from successful treatments had little or no powdery mildew in contrast to untreated plants which were covered with powdery mildew. Phytotoxicity in the form of growth reduction or hormonal effects was observed on some of the plants in association with disease control.

[2] = system: Pyricularia oryzae; test: whole plant or invertebrate; details: for % Control of Rice Blast: 100 ppm spray, day before inoculation; for pest or weed control at 100 ppm: Pyricularia oryzae, 168 h, read-out: % Control of Rice Blast, 100 ppm spray, day before inoculation
[3] = system: Phytophthora infestans; test: whole plant or invertebrate; details: for % Control of Tomato Late Blight: 100 ppm spray, day before inoculation; for pest or weed control at 100 ppm: Phytophthora infestans, in Solanum lycopersicum, 168 h, read-out: % Control of Tomato Late Blight, 100 ppm spray, day before inoculation
[4] = system: Puccinia recondita var. tritici; test: Wheat leaf rust control on sprayed wheat seedlings (Example 79); details: 100 ppm spray, day before inoculation; for pest or weed control at 100 ppm: Puccinia recondita, 168 h
Procedure: The compounds of this invention were dissolved in acetone in an amount equal to 6% of the final volume and then suspended at a concentration of 100 ppm in purified water containing 250 ppm of the surfactant TREM 014 (polyhydric alcohol esters). These suspensions were sprayed to the point of run-off on wheat seedlings. The following day, the plants were inoculated with a spore suspension of Puccinia recondita var. tritici, causal agent of wheat leaf rust, and incubated in a saturated humidity chamber at 20° for 24 hours and then in a growth room for an additional 7 days, when disease ratings were made. Treated plants from successful treatments had few or no rust pustules while the untreated plants had numerous rust pustules on each leaf.

[5] = system: Rhizoctonia solani; test: Rice sheath blight control on sprayed rice seedlings (Example 87); details: 100 ppm spray, day before inoculation; for pest or weed control at 100 ppm: Rhizoctonia solani, 168 h
Procedure: The compounds of the previous examples were again dissolved in acetone in an amount equal to 6% of the final volume and then suspended at a concentration of 100 ppm in purified water containing 250 ppm of the surfactant TREM 014 (polyhydric alcohol esters). This suspension was sprayed to the point of run-off on rice seedlings. The following day, the plants were inoculated with a mixture of bran and the mycelium of Rhizoctonia solani, causal agent of sheath blight of rice, and incubated in a growth room for 7 days. Disease ratings were then made. Treated plants from successful treatments had little sheath blight in contrast to untreated plants which were covered with sheath blight.

[6] = system: Cercospora arachidicola; test: Peanut early leafspot control on sprayed peanut seedlings (Example 84); details: 100 ppm spray, day before inoculation; for pest or weed control at 100 ppm: Mycosphaerella arachidis, 360 h, read-out: % Control Peanut Easly Leafspot
Procedure: These suspensions were sprayed to the point of run-off on peanut seedlings. The following day, the plants were inoculated with a spore suspension of Cercospora arachidicola, causal agent of peanut early leafspot, and incubated in a saturated humidity chamber at 27° for 24 hours and then in a growth room for an additional 14 days, when disease ratings were made. Treated plants from successful treatments had few or no leafspots while the untreated plants had numerous leafspots.

[7] = system: Helminthosporium maydis; test: Southern corn leaf blight control on sprayed corn seedlings (Example 83); details: 100 ppm spray, day before inoculation; for pest or weed control at 100 ppm: Bipolaris maydis, 192 h
Procedure: The compounds of the previous examples were again dissolved in acetone in an amount equal to 6% of the final volume and then suspended at a concentration of 100 ppm in purified water containing 250 ppm of the surfactant TREM 014 (polyhydric alcohol esters). These suspensions were sprayed to the point of run-off on corn seedlings. The following day, the plants were inoculated with a spore suspension of Helminthosporium maydis, causal agent of southern corn leaf blight, and incubated in a saturated humidity chamber at 20° for 24 hours and then in a growth room for an additional 7 days, when disease ratings were made. Treated plants from successful treatments had few or no lesions while the untreated plants had numerous lesions on each leaf. Phytotoxicity expressed as growth reduction was observed on some of the plants in association with disease control.

[8] = system: Venturia inaequalis; test: Apple scab control on sprayed apple seedlings (Example 82); details: 100 ppm spray, day before inoculation; for pest or weed control at 100 ppm: Venturia inaequalis
Procedure: These suspensions were sprayed to the point of run-off on apple seedlings. The following day, the plants were inoculated with a spore suspension of the fungus Venturia inaequalis, causal agent of apple scab, and incubated in a saturated humidity chamber at 20° for 24 hours and then in a growth room for an additional 10-12 days. Treated plants from successful treatments had fewer apple scab lesions when compared to untreated plants which were covered with scab lesions. Phytotoxicity expressed as growth reduction was observed on some of the plants in association with disease control.

Row | Molecule | % Control Cucumber Powdery Mildew [1] [%] | % Control of Rice Blast [2] [%] | % Control of Tomato Late Blight [3] [%] | % Control Wheat Rust [4] [%] | % Control of Rice Sheath Blight [5] [%] | % Control Peanut Easly Leafspot [6] [%] | % Control of Southern Corn Leaf Blight [7] [%] | % Control Apple Scab [8] [%] | pest or weed control at 100 ppm [1] [%] | pest or weed control at 100 ppm [3] [%] | pest or weed control at 100 ppm [8] [%] | pest or weed control at 100 ppm [4] [%] | pest or weed control at 100 ppm [5] [%] | pest or weed control at 100 ppm [6] [%] | pest or weed control at 100 ppm [7] [%] | pest or weed control at 100 ppm [2] [%]
1 | 2:1 complex of [bis(4-Fluorophenyl)]methyl(1H-1,2,4-triazol-1-ylmethyl)silane and Curpic Chloride | 100 | 100 | 40 | 100 | 0 | 100 | 0 | – | – | – | – | – | – | – | – | –
2 | C[Si](C)(Cn1cncn1)c1ccc(-c2ccccc2)cc1.[Cl][Cu] [1:1 complex of (1,1'-Biphenyl-4-yl)dimethyl(1H-1,2,4-triazol-1-ylmethyl)silane and Cuprous Chloride] | 100 | 100 | 100 | 0 | 90 | 100 | 100 | 100 | – | – | – | – | – | – | – | –
3 | C[Si](Cn1cncn1)(c1ccc(Cl)cc1)c1ccccc1Cl (stereo not drawn) [2-Chlorophenyl(4-chlorophenyl)methyl(1H-1,2,4-triazol-1-ylmethyl)silane] | – | – | – | – | – | – | – | – | 100 | 0 | 90 | 100 | 70 | 90 | 60 | –
4 | C[Si](Cn1cncn1)(c1ccccc1)c1ccccc1Cl (stereo not drawn) [2-Chlorophenyl(methyl)phenyl(1H-1,2,4-triazol-1-ylmethyl)silane] | – | – | – | – | – | – | – | – | 100 | 0 | 90 | 80 | 90 | 100 | 100 | 100
5 | C[Si](Cn1cncn1)(c1ccccc1)c1ccc(Br)cc1 (stereo not drawn) [4-Bromophenyl(methyl)phenyl(1H-1,2,4-triazol-1-ylmethyl)silane] | – | – | – | – | – | – | – | – | 100 | 0 | 100 | 0 | 90 | 100 | 80 | 80
6 | C[Si](C)(Cn1cncn1)c1ccccc1-c1ccccc1 [(1,1'-Biphenyl-2-yl)dimethyl(1H-1,2,4-triazol-1-ylmethyl)silane] | – | – | – | – | – | – | – | – | 90 | 50 | 60 | 0 | 0 | 100 | 90 | 90
7 | C[Si](C)(Cn1cncn1)c1cccc(-c2ccccc2)c1 [(1,1'-Biphenyl-3-yl)dimethyl(1H-1,2,4-triazol-1-ylmethyl)silane] | – | – | – | – | – | – | – | – | 0 | 0 | 50 | 80 | 0 | 90 | 100 | 0
8 | C[Si](Cn1cncn1)(c1ccc(F)cc1)c1ccc(-c2ccccc2)cc1 (stereo not drawn) [(1,1'-Biphenyl-4-yl)(4-fluorophenyl)methyl(1H-1,2,4-triazol-1-ylmethyl)silane] | – | – | – | – | – | – | – | – | 100 | 0 | 100 | 100 | 0 | 100 | 80 | –
9 | C[Si](C)(Cn1cncn1)c1ccc(-c2ccccc2)cc1.[Cl][Cu][Cl] [(1,1'-Biphenyl-4-yl)dimethyl(1H-1,2,4-triazol-1-ylmethyl)silane, 1:1 complex with cupric chloride] | 100 | 100 | 90 | 100 | 0 | 100 | 80 | 100 | – | – | – | – | – | – | – | –
10 | C[Si](C)(Cn1cncn1)c1ccc(-c2ccccc2)cc1.O=S(=O)([O-])[O-].[Mn+2] [(1,1'-Biphenyl-4-yl)dimethyl(1H-1,2,4-triazol-1-ylmethyl)silane, 1:1 complex with manganous sulfate] | 90 | 0 | 0 | 90 | 0 | 100 | 100 | 100 | – | – | – | – | – | – | – | –
11 | C[Si](C)(Cn1cncn1)c1ccc(-c2ccccc2)cc1 [(1,1'-Biphenyl-4-yl)dimethyl(1H--1,2,4-triazol-1-ylmethyl)si] [4-Dodecylbenzenesulfonate Salt of (1,1'-Biphenyl-4-yl)dimethyl(1H-1,2,4-triazol-1-ylmethyl)silane] | – | – | – | – | – | – | 100 | – | – | – | – | – | – | – | – | –
12 | Cc1ncnn1C[Si](C)(C)c1ccc(-c2ccccc2)cc1 [(1,1'-Biphenyl-4-yl)dimethyl(5-methyl-1H-1,2,4-triazol-1-ylmethyl)silane] | – | – | – | – | – | – | – | – | 100 | 80 | 100 | 100 | 0 | 100 | 80 | 0
13 | CC(C)(C)O[Si](Cn1cncn1)(c1ccc(F)cc1)c1ccc(F)cc1 [(1,1-Dimethylethoxy)[bis(4-fluorophenyl)](1H-1,2,4-triazol-1-ylmethyl)silane] | – | – | – | – | – | – | – | – | 100 | – | – | – | – | – | 0 | –
14 | CC(C)O[Si](C)(Cn1cncn1)c1ccc(F)cc1 (stereo not drawn) [(4-Fluorophenyl)methyl(2-propoxy)(1H-1,2,4-triazol-1-ylmethyl)silane] | – | – | – | – | – | – | – | – | 100 | – | – | – | – | – | 0 | –
15 | CC(C)O[Si](Cn1cncn1)(OC(C)C)c1ccccc1 [Phenylbis(2-propoxy)(1H-1,2,4-triazol-1-ylmethyl)silane] | – | – | – | – | – | – | – | – | 100 | 0 | 0 | 0 | 0 | 0 | 0 | –
16 | C[Si](Cn1cncn1)(c1ccc(F)cc1)c1ccc(F)cc1.[Cl][Cu] [[bis(4-Fluorophenyl)]methyl(1H-1,2,4-triazol-1-ylmethyl)silane, 1:1 complex with cuprous chloride] | 100 | 90 | 0 | 90 | 90 | 100 | 0 | – | – | – | – | – | – | – | – | –
17 | CC(n1cncn1)[Si](C)(c1ccc(F)cc1)c1ccc(F)cc1 (stereo not drawn) [bis(4-Fluorophenyl)methyl[1-(1H-1,2,4-triazol-1-yl)ethyl]silane] | – | – | – | – | – | – | – | – | 100 | 0 | 100 | 100 | 80 | 100 | – | 0
